Test results from patent US11274268B2, “Detergent compositions for removing heavy metals and formaldehyde” (FNG RESEARCH CO., LTD., priority 2017, dated 2022).

Legend:
[1] = tested on: human skin; assay: Skin irritation test of active ingredient (patch method, CTFA guidelines); assay type: in vivo; conditions: for Test result (number of subject) (+) / Test result (number of subject) (−) / Test result (number of subject) (++) / Test result (number of subject) (±): 20 subjects, 24 hours patch; for Test result (number of subject) (+): apparent reddening; for Test result (number of subject) (−): no erythema or symptoms; for Test result (number of subject) (++): reddened and swollen; for Test result (number of subject) (±): slightly reddish; for Degree of irritation: Equation 1
Protocol: A total of 20 people (10 men and 10 women in their 20s and 30s) were tested for skin irritation using the patch method according to the guidelines of CTFA (The Cosmetic, Toiletry & Fragrance Association, Inc. Washington, D.C.).
A filter paper disk was placed in an 8 mm diameter, 10 panels of pin chamber.
After 24 hours, the pin chamber was removed, and skin conditions were visually observed. The degree and grade for skin irritation were calculated according to the following Equation 1, and the results are shown in Table 3 below.
[Criteria for Skin Irritation]
(−): No erythema or particularly no symptoms; (±): slightly reddish than the periphery; (+): Apparent reddening than periphery; (++): More reddened and swollen than periphery.
[Grade for Skin Irritation]
Degree of irritation 0-0.1: Grade I (unstimulated);
Degree of irritation 0.11-0.3: Grade II (weakly stimulated);
Degree of irritation 0.31-0.5: Grade III (moderately stimulated);
Degree of irritation 0.51 or more: Grade IV (strongly stimulated)

[2] = Formaldehyde removing ability test (GC); conditions: 2.0% formaldehyde solution, 3 molar equivalents, room temperature

Row | Compound | Grade ([1]; content 0.1%) | Test result (number of subject) (+) ([1]; content 0.1%) | Test result (number of subject) (−) ([1]; content 0.1%) | Test result (number of subject) (++) ([1]; content 0.1%) | Test result (number of subject) (±) ([1]; content 0.1%) | Degree of irritation ([1]; content 0.1%) | Grade ([1]; content 0.5%) | Test result (number of subject) (+) ([1]; content 0.5%) | Test result (number of subject) (−) ([1]; content 0.5%) | Test result (number of subject) (++) ([1]; content 0.5%) | Test result (number of subject) (±) ([1]; content 0.5%) | Degree of irritation ([1]; content 0.5%) | Grade ([1]; content 1.0%) | Test result (number of subject) (+) ([1]; content 1.0%) | Test result (number of subject) (−) ([1]; content 1.0%) | Test result (number of subject) (++) ([1]; content 1.0%) | Test result (number of subject) (±) ([1]; content 1.0%) | Degree of irritation ([1]; content 1.0%) | Area (formaldehyde, GC) ([2]; 30 min) [mAU * min] | Area (formaldehyde, GC) ([2]; 180 min) [mAU * min] | also measured
1 | O=C(O)c1ccc(N2CCCN(c3ccc(C(=O)O)o3)CCN(c3ccc(C(=O)O)o3)CCCN(c3ccc(C(=O)O)o3)CC2)o1 [Embodiment 12, 5,5′,5″,5′″-(1,4,8,11-tetraazacyclotetradecane-1,4,8,1-tetrayl)tetrakis(furan-2-carboxylic Acid)] | I (Degree of irritation 0-0.1: Grade I (unstimulated)) | 0 | 20 | 0 | 0 | 0 | I (Degree of irritation 0-0.1: Grade I (unstimulated)) | 0 | 20 | 0 | 0 | 0 | I (Degree of irritation 0-0.1: Grade I (unstimulated)) | 0 | 19 | 0 | 1 | 0.05 | 0.170 | 0 | Area (formaldehyde, GC) ([2]; Initial): 0.305 mAU * min
2 | C1CNCCNCCNCCN1 [Cyclen, 1,4,7,10-tetraazacyclododecane] | I (Degree of irritation 0-0.1: Grade I (unstimulated)) | 0 | 20 | 0 | 0 | 0 | I (Degree of irritation 0-0.1: Grade I (unstimulated)) | 0 | 20 | 0 | 0 | 0 | II (Degree of irritation 0.11-0.3: Grade II (weakly stimulated)) | 1 | 18 | 0 | 1 | 0.15 | 0.181 | 0 | Area (formaldehyde, GC) ([2]; Initial): 0.305 mAU * min
3 | O=C(O)c1ccc(N2CCCN(c3ccc(C(=O)O)cc3)CCN(c3ccc(C(=O)O)cc3)CCCN(c3ccc(C(=O)O)cc3)CC2)cc1 [Embodiment 10, 4,4′,4″,4′-(1,4,8,11-tetraazacyclotetradecane-1,4,8,11-tetrayl)tetrabenzoic Acid] | I (Degree of irritation 0-0.1: Grade I (unstimulated)) | 0 | 20 | 0 | 0 | 0 | I (Degree of irritation 0-0.1: Grade I (unstimulated)) | 0 | 20 | 0 | 0 | 0 | I (Degree of irritation 0-0.1: Grade I (unstimulated)) | 0 | 19 | 0 | 1 | 0.05 | 0.171 | 0 | Area (formaldehyde, GC) ([2]; Initial): 0.305 mAU * min
4 | O=C(O)c1ccc(N2CCN(c3ccc(C(=O)O)cc3)CCN(c3ccc(C(=O)O)cc3)CCN(c3ccc(C(=O)O)cc3)CC2)cc1 [Embodiment 6, 4,4′,4″,4′″-(1,4,7,10-tetraazacyclododecane-1,4,7,10-tetrayl)tetrabenzoic Acid] | I (Degree of irritation 0-0.1: Grade I (unstimulated)) | 0 | 20 | 0 | 0 | 0 | I (Degree of irritation 0-0.1: Grade I (unstimulated)) | 0 | 20 | 0 | 0 | 0 | I (Degree of irritation 0-0.1: Grade I (unstimulated)) | 0 | 19 | 0 | 1 | 0.05 | 0.183 | 0 | Area (formaldehyde, GC) ([2]; Initial): 0.305 mAU * min
5 | O=C(O)c1cncc(N2CCN(c3cncc(C(=O)O)c3)CCN(c3cncc(C(=O)O)c3)CCN(c3cncc(C(=O)O)c3)CC2)c1 [Embodiment 7, 5,5′,5″,5′″-(1,4,7,10-tetraazacyclododecane-1,4,7,10-tetrayl)tetranicotinic Acid] | I (Degree of irritation 0-0.1: Grade I (unstimulated)) | 0 | 20 | 0 | 0 | 0 | I (Degree of irritation 0-0.1: Grade I (unstimulated)) | 0 | 20 | 0 | 0 | 0 | I (Degree of irritation 0-0.1: Grade I (unstimulated)) | 0 | 20 | 0 | 0 | 0 | 0.181 | 0 | Area (formaldehyde, GC) ([2]; Initial): 0.305 mAU * min
6 | O=C(O)CN(CCN(CCN(CC(=O)O)CC(=O)O)CC(=O)O)CCN(CC(=O)O)CC(=O)O [Embodiment 1, 3,6,9,12-tetrakis(carboxymethyl)-3,6,9,12-tetraazatetradecanedioic Acid] | I (Degree of irritation 0-0.1: Grade I (unstimulated)) | 0 | 20 | 0 | 0 | 0 | I (Degree of irritation 0-0.1: Grade I (unstimulated)) | 0 | 19 | 0 | 1 | 0.05 | II (Degree of irritation 0.11-0.3: Grade II (weakly stimulated)) | 0 | 16 | 0 | 4 | 0.20 | 0.170 | 0 | Area (formaldehyde, GC) ([2]; Initial): 0.305 mAU * min
